From patent US11702404B2, “GLP-1R modulating compounds” (priority 2019, dated 2023)
Where two headings read alike, the source gives them in different places.

What was measured:
GLP-1R = GLP-1R (Homo sapiens, UniProt P43220); assay: GLP-1R activation: cAMP increase in CHO cells stably expressing GLP-1R; assay type: cell-based; details: read-out: EC50
[1] = Microsomal stability, human liver microsomes (predicted hepatic clearance); details: predicted from in vitro microsomal stability data
[2] = cAMP increase, CHO cells stably expressing GLP-1R, 10 point dose response, 30 minutes incubation

Sequence of GLP-1R (P43220 24-463): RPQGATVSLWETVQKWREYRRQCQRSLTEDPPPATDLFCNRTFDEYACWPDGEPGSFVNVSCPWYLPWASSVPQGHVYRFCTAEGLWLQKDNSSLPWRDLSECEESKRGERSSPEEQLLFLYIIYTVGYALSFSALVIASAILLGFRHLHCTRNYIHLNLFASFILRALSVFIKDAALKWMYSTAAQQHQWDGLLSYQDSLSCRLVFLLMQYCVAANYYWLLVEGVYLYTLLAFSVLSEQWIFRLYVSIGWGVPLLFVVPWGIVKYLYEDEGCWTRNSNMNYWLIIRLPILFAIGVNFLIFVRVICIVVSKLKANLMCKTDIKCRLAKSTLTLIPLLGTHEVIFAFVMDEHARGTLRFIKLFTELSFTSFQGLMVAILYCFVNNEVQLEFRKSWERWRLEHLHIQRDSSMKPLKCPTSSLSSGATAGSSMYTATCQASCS

Structure (SMILES)	EC50 (GLP-1R; [2])	Predicted Hepatic Clearance (Pred. Cl.) [1]	EC50 (GLP-1R)
N#Cc1ccc(COc2nccc(-c3cc(F)c(Cc4nc5ccc(C(=O)O)cc5n4CCOC4CC4)cc3F)n2)c(F)c1 [Example 897]	4.1 nM	2.17 mL/min/kg	
N#Cc1ccc(COc2cccc(-c3cc(F)c(Cc4nc5ccc(C(=O)O)cc5n4CC45CC(CO4)C5)cc3F)n2)c(F)c1 [Example 898, 1-((2-oxabicyclo[2.1.1]hexan-1-yl)methyl)-2-(4-(6-((4-cyano-2-fluorobenzyl)oxy)pyridin-2-yl)-2,5-difluorobenzyl)-1H-benzo[d]imidazole-6-carboxylic acid]	1.5 nM	9.67 mL/min/kg	
N#Cc1ccc(COc2ccc(F)c(-c3cc(F)c(Cc4nc5ccc(C(=O)O)cc5n4CCOC4CC4)cc3F)n2)c(F)c1 [Example 899]	2.26 nM	4 mL/min/kg	
N#Cc1ccc(COc2nc(-c3cc(F)c(Cc4nc5ccc(C(=O)O)cc5n4CCOC4CC4)cc3F)ccc2F)c(F)c1 [Example 900]	1.26 nM	1.83 mL/min/kg	
COCCn1c(Cc2cc(F)c(-c3cccc(OCc4ccc(C5=CCNCC5)cc4F)n3)cc2F)nc2ccc(C(=O)O)cc21 [Example 901, 2-(2,5-difluoro-4-(6-((2-fluoro-4-(1,2,3,6-tetrahydropyridin-4-yl)benzyl)oxy)pyridin-2-yl)benzyl)-1-(2-methoxyethyl)-1H-benzo[d]imidazole-6-carboxylic acid]	160 nM	4.5 mL/min/kg	
COCCn1c(Cc2cc(F)c(-c3cccc(OCc4ccc(C5=CCN(C(C)=O)CC5)cc4F)n3)cc2F)nc2ccc(C(=O)O)cc21 [Example 902, 2-(4-(6-((4-(1-acetyl-1,2,3,6-tetrahydropyridin-4-yl)-2-fluorobenzyl)oxy)pyridin-2-yl)-2,5-difluorobenzyl)-1-(2-methoxyethyl)-1H-benzo[d]imidazole-6-carboxylic acid]	6.19 nM	8.67 mL/min/kg	
COCCn1c(Cc2ccc(-c3cccc(OCc4ccc(C#N)cc4F)n3)c3c2COC3)nc2ccc(C(=O)O)cc21 [Example 903, 2-((7-(6-((4-cyano-2-fluorobenzyl)oxy)pyridin-2-yl)-1,3-dihydroisobenzofuran-4-yl)methyl)-1-(2-methoxyethyl)-1H-benzo[d]imidazole-6-carboxylic acid]	107 nM	1.83 mL/min/kg	
CC(C)(C)OC(=O)N(CCn1c(Cc2cc(F)c(-c3cccc(OCc4ccc(C#N)cc4F)n3)cc2F)nc2ccc(C(=O)O)cc21)C1CC1 [Example 907, 1-(2-((tert-butoxycarbonyl)(cyclopropyl)amino)ethyl)-2-(4-(6-((4-cyano-2-fluorobenzyl)oxy)pyridin-2-yl)-2,5-difluorobenzyl)-1H-benzo[d]imidazole-6-carboxylic acid]		8.5 mL/min/kg	9960 nM
COCCn1c(Cc2cc(F)c(-c3cccc(OCc4cccc(-c5ccccn5)c4)n3)cc2F)nc2ccc(C(=O)O)cc21 [Example 908]	6.68 nM	5.17 mL/min/kg	
COCCn1c(Cc2cc(F)c(-c3cccc(OCc4cccc(-c5ncccn5)c4)n3)cc2F)nc2ccc(C(=O)O)cc21 [Example 909]	2.25 nM	3.67 mL/min/kg	
COCCn1c(Cc2cc(F)c(-c3cccc(OCc4ccc(-c5ccccn5)cc4F)n3)cc2F)nc2ccc(C(=O)O)cc21 [Example 910]	33.4 nM	2.83 mL/min/kg	
COCCn1c(Cc2cc(F)c(-c3cccc(OCc4ccc(-c5ncccn5)cc4F)n3)cc2F)nc2ccc(C(=O)O)cc21 [Example 911, 2-[[2,5-difluoro-4-[6-[(2-fluoro-4-pyrimidin-2-yl-phenyl)methoxy]-2-pyridyl]phenyl]methyl]-3-(2-methoxyethyl)benzimidazole-5-carboxylic acid]	55.6 nM	1.83 mL/min/kg	
COCCn1c(Cc2cc(F)c(-c3cccc(OCc4ccc(-c5cc[nH]c(=O)c5)cc4F)n3)cc2F)nc2ccc(C(=O)O)cc21 [Example 912]	15.3 nM	1.83 mL/min/kg	
COCCn1c(Cc2cc(F)c(-c3cccc(OCc4cccc(-c5cnn(C)c5)c4)n3)cc2F)nc2ccc(C(=O)O)cc21 [Example 913]	112 nM	3.83 mL/min/kg	
COCCn1c(Cc2cc(F)c(-c3cccc(OCc4cccc(-c5ccn(C)n5)c4)n3)cc2F)nc2ccc(C(=O)O)cc21 [Example 914]	51.5 nM	6 mL/min/kg	
COCCn1c(Cc2cc(F)c(-c3cccc(OCc4ccc(-c5cnn(C)c5)cc4F)n3)cc2F)nc2ccc(C(=O)O)cc21 [Example 915, 2-[[2,5-difluoro-4-[6-[[2-fluoro-4-(1-methylpyrazol-4-yl)phenyl]methoxy]-2-pyridyl]phenyl]methyl]-3-(2-methoxyethyl)benzimidazole-5-carboxylic acid]	2.26 nM	4 mL/min/kg	
COCCn1c(Cc2cc(F)c(-c3cccc(OCc4ccc(-c5cnccn5)cc4F)n3)cc2F)nc2ccc(C(=O)O)cc21 [Example 916]	2.18 nM	1.83 mL/min/kg	
COCCn1c(Cc2cc(F)c(-c3cccc(OCc4ccc(-c5ccn(C)n5)cc4F)n3)cc2F)nc2ccc(C(=O)O)cc21 [Example 917]	56.7 nM	1.83 mL/min/kg	
CO[C@H]1CN(C(C)=O)C[C@H]1n1c(Cc2cc(F)c(-c3cccc(OCc4ccc(C#N)cc4F)n3)cc2F)nc2ccc(C(=O)O)cc21 [Example 918, 3-[(3R,4S)-1-acetyl-4-methoxy-pyrrolidin-3-yl]-2-[[4-[6-[(4-cyano-2-fluoro-phenyl)methoxy]-2-pyridyl]-2,5-difluoro-phenyl]methyl]benzimidazole-5-carboxylic acid]		4.83 mL/min/kg	24.9 nM
CO[C@@H]1CN(C(C)=O)C[C@@H]1n1c(Cc2cc(F)c(-c3cccc(OCc4ccc(C#N)cc4F)n3)cc2F)nc2ccc(C(=O)O)cc21 [Example 919]		4.17 mL/min/kg	840 nM
CO[C@@H]1CN(C(C)=O)C[C@H]1n1c(Cc2cc(F)c(-c3cccc(OCc4ccc(C#N)cc4F)n3)cc2F)nc2ccc(C(=O)O)cc21 [Example 920]		4.67 mL/min/kg	58.5 nM
Cc1cc2nc(Cc3cc(F)c(-c4cccc(OCc5ccc(C#N)cc5F)n4)cc3F)n(C[C@@H]3CCO3)c2cc1C(=O)O [Example 921]	0.33 nM	2.83 mL/min/kg	
CC(=O)N1CC[C@@H]1Cn1c(Cc2cc(F)c(-c3cccc(OCc4ccc(C#N)cc4F)n3)cc2F)nc2ccc(C(=O)O)cc21 [Example 925, (R)-1-((1-acetylazetidin-2-yl)methyl)-2-(4-(6-((4-cyano-2-fluorobenzyl)oxy)pyridin-2-yl)-2,5-difluorobenzyl)-1H-benzo[d]imidazole-6-carboxylic acid]		5.83 mL/min/kg	3.63 nM
COCCn1c(Cc2cc(F)c(-c3cccc(OCc4ccc(C#N)cc4F)n3)cc2F)nc2cc(C)c(C(=O)O)cc21 [Example 926, 2-(4-(6-((4-cyano-2-fluorobenzyl)oxy)pyridin-2-yl)-2,5-difluorobenzyl)-1-(2-methoxyethyl)-5-methyl-1H-benzo[d]imidazole-6-carboxylic acid]	11.8 nM	1.83 mL/min/kg	
